Activity calls are given as the source filed them. No cut-off for these calls is given here.

Series [1] has as its target Histone acetyltransferase GCN5 (Saccharomyces cerevisiae S288c) (UniProt Q03330). Briefly: Inhibition of yeast GCN5 (99 to 262 residues) expressed in Escherichia coli BL21 (DE3) at 33 uM preincubated for 15 mins followed by biotin tagged H3 peptide ( 1 to 23 residues) and [3H]-Ac-CoA addition and measured after 60 mins by radioactive acetylation assay.
Series [2] shares this target. Briefly: Inhibition of yeast GCN5 (99 to 262 residues) expressed in Escherichia coli BL21 (DE3) at 100 uM using biotin tagged H3 peptide ( 1 to 23 residues) as substrate preincubated for 30 mins followed by AC-CoA and substrate addition and measured after 30 mins by AlphaScreen assay.
Series [3] has as its target T1, Histone acetyltransferase GCN5 (Saccharomyces cerevisiae S288c, UniProt Q03330). Briefly: Inhibition of yeast GCN5 (99 to 262 residues) expressed in Escherichia coli BL21 (DE3) preincubated for 15 mins followed by biotin tagged H3 peptide ( 1 to 23 residues) and [3H]-Ac-CoA addition and measured after 60 mins by radioactive acetylation assay.
Series [4] deals with Histone acetyltransferase KAT2A (Homo sapiens) (UniProt Q92830). Briefly: Inhibition of GCN5 in human MV4-11 cells assessed as reduction of acetylated H3K14 level up to 100 uM after 24 hrs by Western blot analysis. In kind it is cell-based.
Histone acetyltransferase KAT2A (Homo sapiens), sequence (Q92830 2-837 limits assumed): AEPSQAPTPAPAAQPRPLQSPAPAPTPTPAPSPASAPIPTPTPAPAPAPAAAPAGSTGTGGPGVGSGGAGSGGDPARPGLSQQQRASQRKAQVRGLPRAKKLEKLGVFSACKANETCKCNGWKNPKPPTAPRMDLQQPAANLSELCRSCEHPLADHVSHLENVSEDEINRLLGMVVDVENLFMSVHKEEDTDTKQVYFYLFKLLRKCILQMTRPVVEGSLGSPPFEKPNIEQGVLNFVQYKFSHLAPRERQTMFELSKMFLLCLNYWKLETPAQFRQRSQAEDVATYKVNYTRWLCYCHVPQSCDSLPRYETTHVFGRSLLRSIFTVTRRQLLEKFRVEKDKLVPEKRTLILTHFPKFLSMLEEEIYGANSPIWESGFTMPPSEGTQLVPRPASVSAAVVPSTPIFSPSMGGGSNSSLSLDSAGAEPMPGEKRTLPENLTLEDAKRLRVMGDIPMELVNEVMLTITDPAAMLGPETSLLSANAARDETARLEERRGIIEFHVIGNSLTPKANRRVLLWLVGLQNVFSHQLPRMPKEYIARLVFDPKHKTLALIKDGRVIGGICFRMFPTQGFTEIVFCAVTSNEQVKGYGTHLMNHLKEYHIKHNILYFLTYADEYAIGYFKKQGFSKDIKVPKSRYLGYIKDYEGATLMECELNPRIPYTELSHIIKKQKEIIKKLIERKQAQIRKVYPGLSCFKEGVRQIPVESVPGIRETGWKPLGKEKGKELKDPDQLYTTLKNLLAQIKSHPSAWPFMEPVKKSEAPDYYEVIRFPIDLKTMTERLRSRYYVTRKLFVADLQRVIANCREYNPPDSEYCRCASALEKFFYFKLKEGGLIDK
Series [5] concerns the target Histone-lysine N-methyltransferase EZH2 (Homo sapiens) (UniProt Q15910). The series is described as follows: Inhibition of EZH2 (unknown origin) at 33 uM relative to control.
Series [6] addresses T1, Histone acetyltransferase GCN5. Briefly: Binding affinity to yeast GCN5 (99 to 262 residues) expressed in Escherichia coli BL21 (DE3) by SPR analysis.
The subject of series [7] is MV4-11. The series is described as follows: Induction of apoptosis in human MV4-11 cells assessed as necrotic cells at 20 uM after 72 hrs by Annexin-V FITC/propidium iodide staining based flow cytometric analysis (reference value: 0.66%). It counts as functional.
Series [8] deals with T2, Histone-lysine N-methyltransferase EHMT2 (Homo sapiens) (UniProt Q96KQ7).
T2 sequence (whole entry): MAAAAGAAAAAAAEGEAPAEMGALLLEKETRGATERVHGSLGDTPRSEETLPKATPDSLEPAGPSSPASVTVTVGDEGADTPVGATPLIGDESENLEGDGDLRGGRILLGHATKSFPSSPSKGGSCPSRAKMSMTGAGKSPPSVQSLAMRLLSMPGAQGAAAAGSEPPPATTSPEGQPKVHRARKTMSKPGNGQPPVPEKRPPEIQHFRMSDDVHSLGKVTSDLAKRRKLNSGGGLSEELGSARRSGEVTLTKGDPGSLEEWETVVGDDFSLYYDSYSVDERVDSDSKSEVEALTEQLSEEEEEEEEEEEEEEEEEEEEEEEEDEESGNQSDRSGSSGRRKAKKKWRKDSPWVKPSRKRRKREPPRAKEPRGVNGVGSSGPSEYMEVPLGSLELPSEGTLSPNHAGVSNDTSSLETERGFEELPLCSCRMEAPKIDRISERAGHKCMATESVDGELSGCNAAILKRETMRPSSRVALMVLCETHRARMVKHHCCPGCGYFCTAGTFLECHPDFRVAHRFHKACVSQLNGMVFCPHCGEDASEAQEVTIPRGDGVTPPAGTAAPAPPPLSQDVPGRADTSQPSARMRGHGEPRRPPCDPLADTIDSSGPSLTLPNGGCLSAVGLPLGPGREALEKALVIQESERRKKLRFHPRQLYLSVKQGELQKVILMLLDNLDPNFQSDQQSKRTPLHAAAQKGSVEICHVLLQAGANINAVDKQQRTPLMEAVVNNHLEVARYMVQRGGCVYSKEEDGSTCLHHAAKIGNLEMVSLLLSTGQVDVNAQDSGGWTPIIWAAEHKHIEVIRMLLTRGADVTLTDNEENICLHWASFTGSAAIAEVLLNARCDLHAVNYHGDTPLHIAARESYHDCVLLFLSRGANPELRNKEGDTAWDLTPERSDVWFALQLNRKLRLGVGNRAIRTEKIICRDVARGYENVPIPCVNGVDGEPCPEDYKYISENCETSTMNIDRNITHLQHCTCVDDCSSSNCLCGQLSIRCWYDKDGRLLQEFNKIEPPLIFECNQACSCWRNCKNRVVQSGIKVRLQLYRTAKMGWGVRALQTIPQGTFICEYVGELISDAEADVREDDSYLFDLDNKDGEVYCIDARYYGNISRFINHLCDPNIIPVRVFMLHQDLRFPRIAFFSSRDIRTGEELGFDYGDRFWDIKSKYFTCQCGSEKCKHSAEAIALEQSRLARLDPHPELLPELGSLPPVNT
Briefly: Inhibition of G9a (unknown origin) at 33 uM relative to control.

In series [9] the test system is MV4-11. Briefly: Induction of apoptosis in human MV4-11 cells assessed as late apototic cells at 20 uM after 72 hrs by Annexin-V FITC/propidium iodide staining based flow cytometric analysis (reference value: 3.41%). It counts as functional.
In series [10] the test system is MV4-11. Briefly: Cell cycle arrest in human MV4-11 cells accumulation at G1 phase at 25 uM after 24 hrs bby propidium iodide staining-based flow cytometric analysis (reference value: 52.56%). It counts as functional.
For series [11], the system named is MV4-11. Briefly: Cell cycle arrest in human MV4-11 cells accumulation at S phase at 12.5 uM after 24 hrs bby propidium iodide staining-based flow cytometric analysis (reference value: 42.77%). It counts as functional.
The test system of series [12] is MV4-11. Briefly: Induction of apoptosis in human MV4-11 cells assessed as late apototic cells at 40 uM after 72 hrs by Annexin-V FITC/propidium iodide staining based flow cytometric analysis (reference value: 3.41%). It counts as functional.
The subject of series [13] is MV4-11. The series is described as follows: Induction of apoptosis in human MV4-11 cells assessed as viable cells at 40 uM after 72 hrs by Annexin-V FITC/propidium iodide staining based flow cytometric analysis (reference value: 95.2%). It counts as functional. Particulars: MV4-11, 72 h, read-out: Activity.
In series [14] the test system is MV4-11. Briefly: Induction of apoptosis in human MV4-11 cells assessed as viable cells at 20 uM after 72 hrs by Annexin-V FITC/propidium iodide staining based flow cytometric analysis (reference value: 95.2%). Particulars: MV4-11, 72 h, read-out: Activity. In kind it is functional.
Series [15] concerns MV4-11. Briefly: Induction of apoptosis in human MV4-11 cells assessed as early apototic cells at 40 uM after 72 hrs by Annexin-V FITC/propidium iodide staining based flow cytometric analysis (reference value: 0.75%). It counts as functional.
For series [16], the system named is HUVEC. The series is described as follows: Antiproliferative activity against HUVEC after 3 days by celltiter-glo luminescent assay. Particulars: human, 72 h. It counts as cell-based.
Series [17] concerns MV4-11. The series is described as follows: Cell cycle arrest in human MV4-11 cells accumulation at G0/G1 phase after 24 hrs bby propidium iodide staining-based flow cytometric analysis. It counts as functional.
The nature of series [18]: Antiproliferative activity against human […] cells after 3 days by celltiter-glo luminescent assay. It counts as cell-based. Particulars: 72 h.
The subject of series [19] is MV4-11. The series is described as follows: Antiproliferative activity against human MV4-11 cells after 3 days by celltiter-glo luminescent assay. It counts as functional, cell-based. Particulars: for IC50: MV4-11, 72 h.
Series [20] deals with MV4-11. The series is described as follows: Induction of apoptosis in human MV4-11 cells assessed as early apototic cells at 20 uM after 72 hrs by Annexin-V FITC/propidium iodide staining based flow cytometric analysis (reference value: 0.75%). In kind it is functional.
Series [21] addresses Histone acetyltransferase p300 (Homo sapiens) (UniProt Q09472). The series is described as follows: Inhibition of p300 (unknown origin) at 33 uM relative to control.
The subject of series [22] is MV4-11. Briefly: Cell cycle arrest in human MV4-11 cells accumulation at G2 phase at 12.5 uM after 24 hrs bby propidium iodide staining-based flow cytometric analysis (reference value: 4.68%). In kind it is functional.
Series [23] concerns MV4-11. The series is described as follows: Induction of apoptosis in human MV4-11 cells assessed as necrotic cells at 40 uM after 72 hrs by Annexin-V FITC/propidium iodide staining based flow cytometric analysis (reference value: 0.66%). It counts as functional.
The test system of series [24] is MV4-11. The series is described as follows: Cell cycle arrest in human MV4-11 cells accumulation at S phase at 25 uM after 24 hrs bby propidium iodide staining-based flow cytometric analysis (reference value: 42.77%). In kind it is functional.
The subject of series [25] is MV4-11. Briefly: Cell cycle arrest in human MV4-11 cells accumulation at G1 phase at 12.5 uM after 24 hrs bby propidium iodide staining-based flow cytometric analysis (reference value: 52.56%). It counts as functional.
Series [26] concerns MV4-11. Briefly: Induction of apoptosis in human MV4-11 cells after 72 hrs by Annexin-V FITC/propidium iodide staining based flow cytometric analysis. In kind it is functional, cell-based.
For series [27], the system named is MV4-11. Briefly: Cell cycle arrest in human MV4-11 cells accumulation at G2 phase at 25 uM after 24 hrs bby propidium iodide staining-based flow cytometric analysis (reference value: 4.68%). In kind it is functional.
The target of series [28] is Histone acetyltransferase GCN5 (Saccharomyces cerevisiae S288c) (UniProt Q03330). The series is described as follows: Binding affinity to yeast GCN5 (99 to 262 residues) expressed in Escherichia coli BL21 (DE3) at 200 uM by STD NMR spectroscopy.
Histone acetyltransferase GCN5 (Saccharomyces cerevisiae S288c), sequence (Q03330 whole entry, the tested form may be a part): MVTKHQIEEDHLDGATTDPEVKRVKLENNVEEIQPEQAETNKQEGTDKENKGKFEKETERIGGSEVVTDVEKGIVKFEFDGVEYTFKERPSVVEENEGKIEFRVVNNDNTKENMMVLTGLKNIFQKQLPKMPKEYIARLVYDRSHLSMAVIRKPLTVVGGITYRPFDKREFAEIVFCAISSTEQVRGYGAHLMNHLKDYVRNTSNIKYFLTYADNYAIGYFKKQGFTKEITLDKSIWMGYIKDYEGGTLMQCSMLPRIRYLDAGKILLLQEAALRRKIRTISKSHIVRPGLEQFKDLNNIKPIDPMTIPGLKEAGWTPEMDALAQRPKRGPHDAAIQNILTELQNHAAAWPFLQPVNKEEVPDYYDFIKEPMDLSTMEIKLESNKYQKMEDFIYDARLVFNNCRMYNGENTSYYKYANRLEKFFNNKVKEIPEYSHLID
Series [29] has the same target. Briefly: Binding affinity to yeast GCN5 (99 to 262 residues) expressed in Escherichia coli BL21 (DE3) at 200 uM by CPMG NMR spectroscopy.

T1 sequence (Q03330 whole entry, the tested form may be a part): as above
Histone-lysine N-methyltransferase EZH2 (Homo sapiens), sequence (Q15910 whole entry, looked up, the tested form may be a part): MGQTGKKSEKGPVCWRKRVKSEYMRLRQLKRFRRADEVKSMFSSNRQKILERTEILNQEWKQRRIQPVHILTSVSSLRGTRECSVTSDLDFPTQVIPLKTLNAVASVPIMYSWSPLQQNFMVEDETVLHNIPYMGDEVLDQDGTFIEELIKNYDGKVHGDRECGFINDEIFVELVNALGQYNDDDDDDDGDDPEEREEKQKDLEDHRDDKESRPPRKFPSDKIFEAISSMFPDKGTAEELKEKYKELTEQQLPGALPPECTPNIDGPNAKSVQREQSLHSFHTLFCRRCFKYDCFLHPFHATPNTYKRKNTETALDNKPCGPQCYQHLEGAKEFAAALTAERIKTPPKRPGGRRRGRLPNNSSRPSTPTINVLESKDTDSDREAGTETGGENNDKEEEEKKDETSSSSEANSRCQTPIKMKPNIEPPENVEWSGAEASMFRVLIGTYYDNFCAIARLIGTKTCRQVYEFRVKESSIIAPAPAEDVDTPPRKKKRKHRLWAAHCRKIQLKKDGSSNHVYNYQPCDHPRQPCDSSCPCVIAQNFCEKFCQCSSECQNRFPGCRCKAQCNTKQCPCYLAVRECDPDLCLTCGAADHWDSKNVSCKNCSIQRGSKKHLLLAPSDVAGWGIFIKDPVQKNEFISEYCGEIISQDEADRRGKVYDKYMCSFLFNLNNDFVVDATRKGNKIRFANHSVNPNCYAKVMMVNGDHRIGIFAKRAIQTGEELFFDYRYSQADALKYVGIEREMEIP
Histone acetyltransferase p300 (Homo sapiens), sequence (Q09472 whole entry): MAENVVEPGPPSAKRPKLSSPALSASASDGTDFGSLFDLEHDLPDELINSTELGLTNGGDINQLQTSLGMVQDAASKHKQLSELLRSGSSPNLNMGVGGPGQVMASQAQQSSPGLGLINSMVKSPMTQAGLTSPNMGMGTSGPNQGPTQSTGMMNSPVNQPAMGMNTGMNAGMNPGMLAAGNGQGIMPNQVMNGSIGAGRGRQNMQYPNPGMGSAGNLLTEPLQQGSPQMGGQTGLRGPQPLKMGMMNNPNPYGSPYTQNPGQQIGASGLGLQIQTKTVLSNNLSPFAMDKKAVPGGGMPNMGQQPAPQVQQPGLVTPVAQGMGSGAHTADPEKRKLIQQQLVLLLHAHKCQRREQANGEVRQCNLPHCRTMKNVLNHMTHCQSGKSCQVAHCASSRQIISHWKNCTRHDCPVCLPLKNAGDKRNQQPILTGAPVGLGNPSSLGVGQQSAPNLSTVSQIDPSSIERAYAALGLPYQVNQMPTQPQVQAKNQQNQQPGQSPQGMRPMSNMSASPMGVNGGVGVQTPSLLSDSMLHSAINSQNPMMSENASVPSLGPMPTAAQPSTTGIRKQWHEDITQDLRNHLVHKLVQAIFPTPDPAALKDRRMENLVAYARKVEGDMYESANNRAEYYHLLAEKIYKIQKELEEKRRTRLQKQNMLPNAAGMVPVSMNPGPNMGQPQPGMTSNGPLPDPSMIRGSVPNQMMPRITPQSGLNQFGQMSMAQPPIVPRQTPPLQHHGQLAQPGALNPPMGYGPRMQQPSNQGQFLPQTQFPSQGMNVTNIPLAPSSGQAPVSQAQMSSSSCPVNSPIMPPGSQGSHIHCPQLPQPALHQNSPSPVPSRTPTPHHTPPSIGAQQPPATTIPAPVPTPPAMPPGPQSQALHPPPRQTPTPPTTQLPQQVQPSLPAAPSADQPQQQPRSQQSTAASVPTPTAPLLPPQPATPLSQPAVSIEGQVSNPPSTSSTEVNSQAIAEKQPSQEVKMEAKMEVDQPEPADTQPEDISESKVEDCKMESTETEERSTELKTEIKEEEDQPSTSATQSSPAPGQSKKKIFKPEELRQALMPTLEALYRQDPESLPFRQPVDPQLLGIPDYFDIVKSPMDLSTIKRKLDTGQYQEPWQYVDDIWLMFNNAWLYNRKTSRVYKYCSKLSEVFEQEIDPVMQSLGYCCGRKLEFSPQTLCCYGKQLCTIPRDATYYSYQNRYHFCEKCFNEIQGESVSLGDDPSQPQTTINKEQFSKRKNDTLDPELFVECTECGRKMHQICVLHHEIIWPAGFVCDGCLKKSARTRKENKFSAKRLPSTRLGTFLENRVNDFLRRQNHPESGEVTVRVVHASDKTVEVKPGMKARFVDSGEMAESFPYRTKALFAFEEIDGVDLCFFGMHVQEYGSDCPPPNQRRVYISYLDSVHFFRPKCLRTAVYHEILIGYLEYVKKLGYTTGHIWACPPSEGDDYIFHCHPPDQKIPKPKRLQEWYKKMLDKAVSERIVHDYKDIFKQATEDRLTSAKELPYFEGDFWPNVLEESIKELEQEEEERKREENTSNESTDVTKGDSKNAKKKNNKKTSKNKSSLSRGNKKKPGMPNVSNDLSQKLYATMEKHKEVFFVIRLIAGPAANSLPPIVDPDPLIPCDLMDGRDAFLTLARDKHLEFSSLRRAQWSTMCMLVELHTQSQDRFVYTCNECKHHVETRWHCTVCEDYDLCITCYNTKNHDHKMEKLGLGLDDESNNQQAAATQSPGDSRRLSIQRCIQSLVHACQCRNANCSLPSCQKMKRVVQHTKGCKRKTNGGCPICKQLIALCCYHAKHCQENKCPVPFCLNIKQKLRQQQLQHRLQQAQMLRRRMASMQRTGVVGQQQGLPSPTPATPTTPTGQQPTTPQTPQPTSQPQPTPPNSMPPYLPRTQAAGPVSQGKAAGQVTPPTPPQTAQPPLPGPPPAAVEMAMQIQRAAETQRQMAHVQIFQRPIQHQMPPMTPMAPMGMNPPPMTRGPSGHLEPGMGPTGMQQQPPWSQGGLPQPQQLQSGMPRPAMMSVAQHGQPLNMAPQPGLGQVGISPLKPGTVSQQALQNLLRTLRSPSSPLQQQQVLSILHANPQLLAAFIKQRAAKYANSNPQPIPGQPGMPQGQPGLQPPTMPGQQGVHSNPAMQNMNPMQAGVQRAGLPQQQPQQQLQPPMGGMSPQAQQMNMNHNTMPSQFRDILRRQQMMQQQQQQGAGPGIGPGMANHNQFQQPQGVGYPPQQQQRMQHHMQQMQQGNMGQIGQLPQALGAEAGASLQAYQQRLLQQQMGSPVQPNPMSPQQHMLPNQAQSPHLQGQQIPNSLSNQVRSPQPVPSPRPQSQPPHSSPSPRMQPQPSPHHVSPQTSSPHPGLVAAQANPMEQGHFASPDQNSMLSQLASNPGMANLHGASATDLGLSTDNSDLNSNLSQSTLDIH

In the case of `CC1(C)CC(=O)C2=C(C1)NC1=C(C(=O)CC(C)(C)C1)C2c1ccc(OCc2ccccc2)c(Br)c1`, in series [1], the inhibition came out at 15%.
Turning to `O=C(O)c1ccc(-c2nc3c4ccccc4c4ccccc4c3[nH]2)cc1`, the inhibition in series [2] was more than 70%. For the same molecule, the IC50 in [3] was 8.6 µM.
Take `O=C(O)c1ccc(COc2ccccc2Br)cc1`: the IC50 in [3] was 81 µM.
Turning to `O=c1cc(O)c2sc3nc(-c4cccs4)cc(C(F)(F)F)c3c2[nH]1`, the inhibition in series [2] is more than 70%. The IC50 in series [3] is 19 µM.
Take `CCC(=O)Nc1cccc(NC(=O)C(C)Oc2cccc(C)c2)c1` (stereo not drawn): in series [2], the inhibition was more than 70%.
On to `CC1(C)CC(=O)C2=C(C1)NC1=C(C(=O)CC(C)(C)C1)C2c1ccc(OCc2ccc(C(=O)O)cc2)c(Br)c1`, for which the IC50 in series [3] amounted to 16 µM.
In the case of `COC(=O)c1cc(NC(=O)Cc2cccs2)cc(C(=O)OC)c1`, the inhibition in [2] was more than 70%. In addition, in series [3], the IC50 was 2.9 µM.
Take `CN(C)CCOc1ccc(NC2Cc3ccccc3CSc3ccccc32)cc1` (stereo not drawn): in [2], the inhibition was more than 70%.
For `CC1(C)CC(=O)C2=C(C1)NC1=C(C(=O)CC(C)(C)C1)C2c1ccc(O)c(Br)c1`, in series [1], the inhibition is 18%.
Consider `N#Cc1c(-c2ccc(F)cc2)cc(-c2cccs2)nc1SCC(=O)NCC(=O)O`, for which, in series [2], the inhibition is more than 70%. Further, the IC50 in series [3] worked out at 20 µM.
Consider `CC1(C)CC(=O)C2=C(C1)NC1=C(C(=O)CC(C)(C)C1)C2c1cc(Br)c(OCc2ccc(C(=O)O)cc2)c(Br)c1`, for which the inhibition entry in series [4] is “Active”. Also, the inhibition was 7% in [5], -8% in series [8] and 21% in series [21]. Moreover, in [6], binding was characterised by a dissociation constant (Kd) of 4.2 µM. Further, the Activity stood at 0.41% in [7]; 16.2% in series [9]; 84.7% in [10]; 26.29% in series [11]; 54.6% in series [12]; 0.7% in [15]. Moreover, the Activity result in series [16] is “Non-Toxic”; in series [17], “Dose-dependent effect”; in series [18] it was “Non-Toxic”; in series [19], “Dose-dependent effect”; in [20], 0.81%; in [22], 1.35%. The Activity in series [23] was 2.32%; in series [24], 13.99%; in [25] it was 72.36%; in [26], “Dose-dependent effect”; in series [27], 1.3%. Also, the concentration for half-maximal inhibition (IC50) in series [3] was 6.8 µM; in [19] it was 24.7 µM. Also, the viability at 40 µM in series [13] came out at 42.4%. Besides, the viability at 20 µM in series [14] stood at 82.5%.
The molecule `O=C1CCCC2=C1C(c1cc(Cl)c(OCc3ccc(C(=O)O)cc3)c(Cl)c1)C1=C(CCCC1=O)N2` displayed a Kd in series [6] of 26.2 µM. Also, in series [2], the inhibition was more than 70%. Moreover, the result in series [28] and in series [29] was Active. The IC50 in series [3] is 34.7 µM.
Regarding `COc1cc(C2C3=C(CCCC3=O)NC3=C2C(=O)CCC3)ccc1OCc1ccc(C(=O)O)cc1`, the inhibition in series [1] was found to be 24%.
`COC(=O)C1=C(C)NC2=C(C(=O)CC(C)(C)C2)C1c1ccc(OCc2ccc(C(=O)O)cc2)cc1` (stereo not drawn): in series [3], the IC50 turned out to be 31 µM.
On to `CC1=C(C#N)C(c2ccc(OCc3ccc(C(=O)O)cc3)cc2)C2=C(CCCC2=O)N1` (stereo not drawn), for which, in [1], the inhibition was determined as 34%.
With `COc1cc(CNC2CCCC2)ccc1OCC(=O)NC(C)(C)C`, the inhibition in [2] was more than 70%.
With `O=C1CCCC2=C1C(c1ccc(OCc3cccc(F)c3)c(Br)c1)C1=C(CCCC1=O)N2`, in series [4], the inhibition result is “inactive”. For the same molecule, in series [1], the inhibition worked out at 26%. This molecule yielded an IC50 in [19] of more than 100 µM.
As to `O=C1CCCC2=C1C(c1ccc(OCc3ccc(C(=O)O)cc3)cc1)c1ccc3ccccc3c1N2` (stereo not drawn), the IC50 in series [3] is 34 µM.

The values are drawn from ChEMBL document CHEMBL4152219, “Discovery of 1,8-acridinedione derivatives as novel GCN5 inhibitors via high throughput screening” (Eur J Med Chem, 2018).
